For data set [1], the system named is anti OVA-specific IgE antibody. The data set is described as follows: Allergy induction activity test: anti OVA-specific IgE antibody in serum. The data set is classed as in vivo, BALB/c mice. The conditions noted are these: dorsal-subcutaneous, compared to OVA single administration group. As for the experimental part: 8-Week-old female BALB/c mice were divided into groups (N=6), and each group was primarily immunized by dorsal-subcutaneous administration of (1) ovalbumin (OVA) (10 μg) dissolved in saline as an antigen (OVA single administration group), (2) OVA (10 μg) and, as an adjuvant, N,N′-bis(2-heptylundecanoyl)-L-cystine dimethyl ester (SZ23) (2.56 μmol) (corresponding to 0.2 mg based on aluminum hydroxide gel adjuvant) dissolved in saline (SZ23; 2.56 μmol addition group), (3) OVA (10 μg) and SZ23; 0.256 μmol dissolved in saline (SZ23; 0.256 μmol addition group), (4) OVA (10 μg) and SZ23; 0.0256 μmol dissolved in saline (SZ23; 0.0256 μmol addition group), (5) OVA (10 μg) and aluminum hydroxide gel adjuvant (2.56 μmol) (0.2 mg) dissolved in saline (ALUM addition group, positive control), and (6) saline (saline single administration group), per each mouse. One week later, the secondary immunization was carried out by dorsal-subcutaneous administration of solutions similar to those of the above-mentioned (1) to (6) again. Two weeks from the secondary immunization, the whole blood and spleen were extracted under anesthesia, and the obtained serum sample was measured for anti OVA-specific IgG1 subclass antibody.
The serum sample obtained in Example 2 was measured for an anti OVA-specific IgE antibody. The measurement method of the anti OVA-specific IgE antibody is as follows.
DS mouse IgE ELISA (OVA) kit manufactured by DS Pharma Biomedical Co., Ltd. was used. The protocol is briefly shown below.
The serum sample and a standard reagent for drawing an analytical curve were diluted with a buffer and, after stirring, left standing at room temperature for 10 min. The sample and the standard solution were added to a plate bound with an IgE capture antibody in advance and, after stirring, the mixture was left standing at room temperature for 60 min. […] A reaction quenching liquid was added, the mixture was stirred, and the absorbance (OD Value=450 nm) was immediately measured.

Data set [2] has as its system anti OVA-specific IgG1 subclass antibody. Put plainly: Adjuvant activity test: anti OVA-specific IgG1 subclass antibody in serum after subcutaneous immunization with OVA. Format: in vivo, BALB/c mice. Particulars: for production of anti OVA-specific IgG1 subclass antibody: dorsal-subcutaneous. As for the experimental part: One week later, the secondary immunization was carried out by dorsal-subcutaneous administration of solutions similar to those of the above-mentioned (1) to (5) again. Two weeks from the secondary immunization, the whole blood and spleen were extracted under anesthesia, and the obtained serum sample was measured for anti OVA-specific IgG1 subclass antibody. A method for measurement of the anti OVA-specific IgG1 subclass antibody in Example 1, and the following Examples 2, 4, 7 to 10 and 13 to 16 is as follows.
To a 96 well plate was added 5 μg/ml OVA at 100 μl/well, and the mixture was incubated at 4° C. overnight. After incubation, the mixture was washed three times with 200 μl of PBS-T (PBS (phosphate buffered saline)+0.05% (v/v) Tween 20) per well, and blocked with 100 μl of 5% FCS (fatal calf serum)/PBS solution per well at room temperature for 1 to 2 hr. Thereafter, the mixture was washed three times with PBS-T (200 μl/well), a diluted serum sample (100 μl/well) or the same amount of 5% FCS/PBS solution as a control was added, and the mixture was incubated at 37° C. for 1 hr. Thereafter, the mixture was washed five times with PBS-T (200 μl/well), a diluted biotinylated anti-mouse IgG1 antibody (100 μl/well) was added, and the mixture was incubated at 37° C. for 45 min. Thereafter, the mixture was washed five times with PBS-T (200 μl/well), a diluted anti-biotin-HRP antibody was added (100 μl/well), and the mixture was incubated at 37° C. for another 30 min. Thereafter, the mixture was washed five times with PBS-T (200 μl/well), TMB substrate solution was added (100 μl/well), and the mixture was incubated at room temperature for 10 to 15 min. Thereafter, a reaction quenching liquid (2N sulfuric acid solution) was added (50 μl/well) to discontinue a color developing reaction, and the absorbance (OD Value=450 nm) was measured by a microplate reader.
One week later, the secondary immunization was carried out by dorsal-subcutaneous administration of solutions similar to those of the above-mentioned (1) to (6) again. Two weeks from the secondary immunization, the whole blood and spleen were extracted under anesthesia, and the obtained serum sample was measured for anti OVA-specific IgG1 subclass antibody.
8-Week-old female BALB/c mice were divided into groups (N=6), and each group was primarily immunized by dorsal-subcutaneous administration of (1) ovalbumin (OVA) ([…] administration group), (2) OVA (10 μg) and, as an adjuvant, N,N′-bis(2-heptylundecanoyl)-L-cystine dimethyl ester (SZ23) ([…]), (3) OVA (10 μg) and N,N′-bis(dodecanoyl)-L-cystine dimethyl ester (SZ24) ([…]), and (4) saline (saline single administration group), each per mouse. One week later, the secondary immunization was carried out by dorsal-subcutaneous administration of solutions similar to those of the above-mentioned (1) to (4) again. Two weeks from the secondary immunization, the whole blood was extracted under anesthesia, and the obtained serum sample was measured for anti OVA-specific IgG1 subclass antibody. SZ24 is disclosed in JP-A-4-230359, which is incorporated herein by reference in its entirety.
8-Week-old female BALB/c mice were divided into groups (N=6), and each group was primarily immunized by dorsal-subcutaneous administration of (1) ovalbumin (OVA) ([…] administration group), (2) OVA (10 μg) and, as an adjuvant, N,N′-bis(2-tetradecylhexadecanoyl)-L-cystine dimethyl ester (SZ37) (0.256 μmol) added to saline, (3) OVA (10 μg) and N,N′-bis(2-octadecyleicosanoyl)-L-cystine dimethyl ester (SZ38) (0.256 μmol) added to saline, (4) OVA (10 μg) and SZ37 (0.256 μmol) dissolved or dispersed in 5% αCD-added saline, and (5) OVA (10 μg) and SZ38 (0.256 μmol) dissolved or dispersed in 5% αCD-added saline, each per mouse. One week later, the secondary immunization was carried out by dorsal-subcutaneous administration of solutions or dispersions similar to those of the above-mentioned (1) to (5) again. […]

The subject of data set [3] is Human monocyte cell line THP-1. The data set is described as follows: Immunostimulatory effect on human monocyte cell line (CCK-8 cell proliferation, Stimulation Index). The data set is classed as cell-based. Particulars: 24 hr, compared to well added only with medium.
For data set [4], the system named is Mouse macrophage-like cell line RAW. Put plainly: Immunostimulatory effect on mouse macrophage-like cell line (CCK-8 cell proliferation, Stimulation Index). Format: cell-based. The conditions noted are these: 24 hr, compared to well added only with medium.
Data set [5] concerns anti-influenza IgA antibody. The data set is described as follows: Intranasal influenza vaccine adjuvant test: anti-influenza IgA antibody in nasal cavity wash. The conditions noted are these: 4.92 μg with influenza vaccine 20 μl, twice, compared to influenza vaccine single administration group. The data set is classed as in vivo, BALB/c mice. The protocol:
(§1) 8-Week-old female BALB/c mice were divided into groups (N=6), and each group was primarily immunized by intranasal administration of (1) saline, (2) influenza vaccine (Influenza HA Vaccine “SEIKEN”, manufactured by Denka Seiken Co. Ltd.) (20 μl) diluted with saline (influenza vaccine single administration group) as an antigen, (3) influenza vaccine (20 μl) and N,N′-bis(octadecanoyl)-L-cystine dimethyl ester (SZ35) (0.55 μg) as an adjuvant diluted with saline, (4) influenza vaccine (20 μl) and N,N′-bis(octadecanoyl)-L-cystine dimethyl ester (SZ35) (1.64 μg) as an adjuvant diluted with saline, and (5) influenza vaccine (20 μl) and N,N′-bis(octadecanoyl)-L-cystine dimethyl ester (SZ35) (4.92 μg) as an adjuvant diluted with saline, each per mouse. […] The obtained serum samples were measured for anti-influenza IgG1 subclass antibody and HI titer assay (hemagglutination inhibition test) was performed. […]
(§2) 0.5 μg/ml influenza vaccine (Influenza HA Vaccine “SEIKEN”, manufactured by Denka Seiken Co. Ltd.) was added to a 96 well plate by 100 μl per well, and the mixture was incubated at 4° C. overnight. […] Thereafter, a reaction quenching liquid (2N sulfuric acid solution) was added (50 μl/well) to discontinue a color developing reaction, and the absorbance (OD Value=450 nm) was measured by a microplate reader.

The subject of data set [6] is anti-influenza IgG antibody. The data set is described as follows: Intranasal influenza vaccine adjuvant test: anti-influenza IgG antibody in nasal cavity wash. Format: in vivo, BALB/c mice. Particulars: 4.92 μg with influenza vaccine 20 μl, twice, compared to influenza vaccine single administration group. As for the experimental part: as §1, §2
The test system of data set [7] is anti-influenza IgG1 subclass antibody. The data set is described as follows: Intranasal influenza vaccine adjuvant test: anti-influenza IgG1 subclass antibody in serum. Format: in vivo, BALB/c mice. Particulars: twice, compared to influenza vaccine single administration group. As for the experimental part: 8-Week-old female BALB/c mice were divided into groups (N=6), and each group was primarily immunized by intranasal administration of (1) saline, (2) influenza vaccine (Influenza HA Vaccine “SEIKEN”, manufactured by Denka Seiken Co. Ltd.) (20 μl) diluted with saline (influenza vaccine single administration group) as an antigen, (3) influenza vaccine (20 μl) and N,N′-bis(octadecanoyl)-L-cystine dimethyl ester (SZ35) (0.55 μg) as an adjuvant diluted with saline, (4) influenza vaccine (20 μl) and N,N′-bis(octadecanoyl)-L-cystine dimethyl ester (SZ35) (1.64 μg) as an adjuvant diluted with saline, and (5) influenza vaccine (20 μl) and N,N′-bis(octadecanoyl)-L-cystine dimethyl ester (SZ35) (4.92 μg) as an adjuvant diluted with saline, each per mouse. Two weeks later, the secondary immunization was carried out by intranasal administration of solutions similar to those of the above-mentioned (1) to (5) again. Two weeks from the secondary immunization, the whole blood was extracted under anesthesia, and nasal cavity washing was performed. The obtained serum samples were measured for anti-influenza IgG1 subclass antibody and HI titer assay (hemagglutination inhibition test) was performed. As a nasal cavity wash, thorax of mouse was opened to expose trachea, the trachea was incised, an Atom venous catheter with clause was inserted and 1 mL of saline was injected. The liquid discharged from the nose was centrifuged at 10000 g for 3 min, and the supernatant was recovered and used as a nasal cavity wash sample. The nasal cavity wash sample was subjected to the measurement of anti-influenza IgA antibody and IgG antibody. The measurement method was as follows.
as §2

Data set [8] concerns HA antigen (A/California/7/2009(H1N1)). The data set is classed as in vivo, BALB/c mice. The conditions noted are these: intranasal, twice, compared to influenza vaccine single administration group.
The mark [9] stands for this setting: 0.256 μmol dispersed in 5% αCD-added saline with OVA 10 μg, compared to control (OVA in 5% αCD-added saline).
Setting [10] is: 2.56 μmol in saline with OVA 10 μg, primary + secondary immunization, serum two weeks after, compared to OVA single administration group.
The mark [11] stands for this setting: 0.55 μg with influenza vaccine 20 μl.
[12] abbreviates: 1.64 μg with influenza vaccine 20 μl.
Where [13] appears, read: 4.92 μg with influenza vaccine 20 μl.

Where two headings read alike, the source gives them in different places.

For the compound `CCCCCCCCCC(CCCCCCC)C(=O)N[C@@H](CSSC[C@H](NC(=O)C(CCCCCCC)CCCCCCCCC)C(=O)OC)C(=O)OC` (stereo partly drawn) [SZ23, N,N′-bis(2-heptylundecanoyl)-L-cystine dimethyl ester], the “production of anti OVA-specific IgE antibody” value in data set [1] (0.0256 μmol in saline with OVA 10 μg), in data set [1] (0.256 μmol in saline with OVA 10 μg) and in data set [1] (2.56 μmol in saline with OVA 10 μg) was “not observed” throughout. For the same compound, the “production of anti OVA-specific IgG1 subclass antibody” value in data set [2] (0.0256 μmol in saline with OVA 10 μg, compared to OVA single administration group) was “significantly increased”; in data set [2] (setting [9]) it was “significantly increased”; in data set [2] (0.256 μmol in saline with OVA 10 μg, compared to OVA single administration group), “significantly increased”; in data set [2] (setting [10]), “significantly increased”. For the same compound, in data set [2] (all addition groups 2.56, 0.256 and 0.0256 μmol in saline, compared to aluminum hydroxide gel adjuvant 2.56 μmol (0.2 mg)), the “production of anti OVA-specific IgG1 subclass antibody relative to ALUM addition group” value is listed as “of the same level”. Further, the “cell proliferation (Stimulation Index)” value in data set [3] (THP-1, final concentration 400 nM) was “significant cell proliferation”; in data set [3] (THP-1, final concentration 4 μM), “significant cell proliferation”; in data set [4] (final concentration 4 nM) it was “significant cell proliferation”; in data set [4] (final concentration 400 nM), “significant cell proliferation”; in data set [4] (final concentration 4 μM) it was “significant cell proliferation”.

For the compound `CCCCCCCCCCCCCCCCCC(=O)N[C@@H](CSSC[C@H](NC(=O)CCCCCCCCCCCCCCCCC)C(=O)OC)C(=O)OC` [SZ35, N,N′-bis(octadecanoyl)-L-cystine dimethyl ester], the “production of anti-influenza IgA antibody in the nasal cavity wash” value in data set [5] is on record as “significantly increased”. Further, the “production of anti-influenza IgG antibody in the nasal cavity wash” value in data set [6] is recorded as “significantly increased”. For the same compound, the “production of anti-influenza IgG1 subclass antibody in the serum” value in data set [7] (setting [11]), in data set [7] (setting [12]) and in data set [7] (setting [13]) was “significantly increased” throughout. For the same compound, the “production of anti OVA-specific IgG1 subclass antibody” value in data set [2] (setting [9]) and in data set [2] (setting [10]) was “significantly increased” each time. Moreover, the “HI antibody value in the serum” value in data set [8] (setting [11]), in data set [8] (setting [12]) and in data set [8] (setting [13]) was “significantly increase” throughout.

Values taken from patent publication US10100008B2, “Immunostimulating agent” (AJINOMOTO CO., INC., priority 2014, dated 2018).
